{"source": "patent US9072660B2", "about": "“Topical itraconazole formulations and uses thereof” (THE BOARD OF TRUSTEES OF THE LELAND STANFORD JUNIOR …, priority 2011, dated 2015)", "key": {"BCCs (Smo)": {"tested_on": "BCCs (Smo)", "settings": "cited from earlier work"}, "[1]": {"tested_on": "ASZ BCC tumor cell line (GLI1 mRNA)", "test": "GLI1 mRNA expression in BCC tumor cell line ASZ", "type": "cell-based, mice", "settings": "ASZ cells, vs DMSO control"}, "[2]": {"tested_on": "BSZ BCC tumor cell line (GLI1 mRNA)", "test": "GLI1 mRNA expression in BCC tumor cell line BSZ", "type": "cell-based, mice", "settings": "BSZ cells, vs DMSO control"}, "[3]": {"settings": "cited from earlier work"}, "BCC tumors [4]": {"tested_on": "BCC tumors", "test": "oral itraconazole in patients with BCC tumors", "type": "in vivo, humans", "settings": "oral 400 mg per day for 1 month"}, "BCC tumors [5]": {"tested_on": "BCC tumors", "test": "oral itraconazole on endogenous BCC tumors in PTCH1+/- K14-Cre-ER2 p53fl/fl mice", "type": "in vivo"}, "[6]": {"settings": "cited from earlier work", "remark": "listed apart in the source"}, "[7]": {"tested_on": "Hedgehog signaling pathway (Smo)", "settings": "cited from earlier work"}}, "data": [{"smiles": "CC1=C2C[C@H]3[C@@H](CC=C4C[C@@H](O)CC[C@@]43C)[C@@H]2CC[C@]12O[C@@H]1C[C@H](C)CN[C@H]1[C@H]2C", "note": "[cyclopamine]", "values": [{"measurement": "inhibition of BCCs", "setting": "BCCs (Smo); model systems (in vitro and in vivo)", "value": "effectively inhibited"}, {"measurement": "side effects", "setting": "BCCs (Smo); systemic use", "value": "severe side effects"}]}, {"smiles": "CCC(C)n1ncn(-c2ccc(N3CCN(c4ccc(OC[C@H]5CO[C@](Cn6cncn6)(c6ccc(Cl)cc6Cl)O5)cc4)CC3)cc2)c1=O", "note": "(relative stereo) [itraconazole, (2R,4S)-rel-1-(butan-2-yl)-4-{4-[4-(4-{[(2R,4S)-2-(2,4-dichlorophenyl)-2-(1H-1,2,4-triazol-1-ylmethyl)-1,3-dioxolan-4-yl]methoxy}phenyl)piperazin-1-yl]phenyl]-4,5-dihydro-1H-1,2,4-triazol-5-one]", "values": [{"measurement": "GLI1 mRNA expression", "setting": "[1]; 0.1 μM", "value": "reduced"}, {"measurement": "GLI1 mRNA expression", "setting": "[1]; 1.0 μM", "value": "reduced"}, {"measurement": "GLI1 mRNA expression", "setting": "[2]; 0.1 μM", "value": "reduced"}, {"measurement": "GLI1 mRNA expression", "setting": "[2]; 1.0 μM", "value": "reduced"}, {"measurement": "Half-life", "setting": "[3]; in vivo", "value": 21, "unit": "h"}, {"measurement": "Oral Bio-availability", "setting": "[3]; with meal", "value": 55, "unit": "%"}, {"measurement": "change of BCC tumor size on average (95% Confidence Interval: 11% to −62%)", "setting": "BCC tumors [4]", "value": "−21", "unit": "%"}, {"measurement": "serum concentrations required for oral anti-BCC effect in mouse vs those reached in humans at regular therapeutic doses (400 mg/day orally)", "setting": "BCC tumors [5]; in vivo mouse studies", "value": "appreciably higher"}, {"measurement": "BCC tumor necrosis", "setting": "BCC tumors [5]; itraconazole 400 mg/day vs cyclodextrin control treated mice, P<0.02, FIG. 2 left", "value": "caused BCC tumor necrosis"}, {"measurement": "reduction of BCC tumor size", "setting": "BCC tumors [5]; oral gavage, 200 mg BID, in 15 days, vs control (cyclodextrin or acetone), P<0.05, FIG. 1", "value": 50, "unit": "%"}, {"measurement": "Protein binding", "setting": "[6]", "value": 99.8, "unit": "%"}, {"measurement": "ciliary accumulation of Smo normally caused by HH stimulation", "setting": "[7]", "value": "prevents"}, {"measurement": "inhibition of the HH signaling pathway", "setting": "[7]; model cell-based assays, by binding to Smo", "value": "potently inhibited"}, {"measurement": "expression of the HH target gene GLI1", "setting": "[7]; model cell-based assays", "value": "decreased"}]}]}
